Results as given in PubChem BioAssay (NCI).
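In this assay, cells in 96-well plates receive the compound at five concentrations for 48 hours. Endpoints are linearly interpolated between the surrounding concentrations. Abbreviation: GI50, concentration required for 50% inhibition of growth. Definition used: TGI = concentration required for complete inhibition of growth.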

Tests used:
Test in all cases: DTP human tumour cell line panel, 48 h
[1] = test system: RXF 393 renal
[2] = test system: HCC-2998 colon
[3] = test system: SNB-75 CNS
[4] = test system: COLO 205 colon
[5] = test system: NCI-H460 lung
[6] = test system: HT29 colon
[7] = test system: A498 renal
[8] = test system: SW-620 colon
[9] = test system: NCI-H226 lung
[10] = test system: MCF7 breast
[11] = test system: HCT-116 colon
[12] = test system: SN12C renal
[13] = test system: RPMI-8226 leukemia
[14] = test system: IGROV1 ovarian
[15] = test system: HS 578T breast
[16] = test system: SK-MEL-5 melanoma
[17] = test system: DU-145 prostate
[18] = test system: CCRF-CEM leukemia
[19] = test system: UACC-62 melanoma
[20] = test system: SNB-19 CNS
[21] = test system: SF-295 CNS
[22] = test system: MDA-MB-231 breast
[23] = test system: MALME-3M melanoma
[24] = test system: NCI-H522 lung
[25] = test system: SK-MEL-28 melanoma
[26] = test system: HL-60(TB) leukemia
[27] = test system: SF-539 CNS
[28] = test system: MOLT-4 leukemia
[29] = test system: UO-31 renal
[30] = test system: U251 CNS
[31] = test system: SR leukemia
[32] = test system: NCI/ADR-RES ovarian
[33] = test system: HOP-62 NSCLC
[34] = test system: PC-3 prostate
[35] = test system: ACHN renal
[36] = test system: OVCAR-4 ovarian
[37] = test system: KM12 colon
[38] = test system: A549 NSCLC
[39] = test system: SF-268 CNS
[40] = test system: TK-10 renal
[41] = test system: CAKI-1 renal
[42] = test system: HCT-15 colon
[43] = test system: OVCAR-8 ovarian
[44] = test system: NCI-H23 lung
[45] = test system: SK-OV-3 ovarian
[46] = test system: MDA-MB-435
[47] = test system: OVCAR-5 ovarian
[48] = test system: HOP-92 NSCLC
[49] = test system: LOX IMVI melanoma
[50] = test system: K-562 leukemia
[51] = test system: M14 melanoma
[52] = test system: 786-0 renal
[53] = test system: SK-MEL-2 melanoma
[54] = test system: OVCAR-3 ovarian
[55] = test system: T-47D breast
[56] = test system: BT-549 breast
[57] = test system: UACC-257 melanoma
[58] = test system: EKVX NSCLC

Nc1c(C(=O)Nc2ccccc2)sc2nc3c(cc12)CCCC3 gave a GI50 [1] of 0.744 µM, a TGI [1] of 8.17 µM and a GI50 [2] of 1.99 µM. The TGI [2] was greater than 37.2 µM, the GI50 [3] was 0.551 µM and the TGI [3] was 40.8 µM. It also gave a GI50 [4] of 1.24 µM, a TGI [4] of 13.8 µM and a GI50 [5] of 0.458 µM. For the same compound, the TGI [5] was greater than 75.9 µM, the GI50 [6] was 0.74 µM and the TGI [6] was greater than 26.3 µM. The GI50 [7] was 0.227 µM, the TGI [7] was 30 µM and the GI50 [8] was 0.403 µM. For the same compound, the TGI [8] was greater than 100 µM, the GI50 [9] was 3.31 µM and the TGI [9] was greater than 100 µM. It also gave a GI50 [10] of 0.355 µM, a TGI [10] greater than 100 µM and a GI50 [11] of 0.49 µM. It also gave a TGI [11] greater than 100 µM, a GI50 [12] of 1.23 µM and a TGI [12] greater than 100 µM. For the same compound, the GI50 [13] was 0.681 µM, the TGI [13] was 11.5 µM and the GI50 [14] was 2.64 µM. For the same compound, the TGI [14] was greater than 100 µM, the GI50 [15] was 2.73 µM and the TGI [15] was greater than 100 µM. The GI50 [16] was 0.365 µM, the TGI [16] was 2.24 µM and the GI50 [17] was 1.67 µM. The TGI [17] was greater than 58.9 µM, the GI50 [18] was 0.374 µM and the TGI [18] was greater than 46.5 µM. The GI50 [19] was 0.493 µM, the TGI [19] was greater than 100 µM and the GI50 [20] was 18.1 µM. It also gave a TGI [20] greater than 100 µM, a GI50 [21] of 0.635 µM and a TGI [21] of 49.6 µM. It also gave a GI50 [22] of 3.93 µM, a TGI [22] greater than 100 µM and a GI50 [23] of 0.608 µM. For the same compound, the TGI [23] was 95.2 µM, the GI50 [24] was 0.872 µM and the TGI [24] was greater than 25.8 µM. The GI50 [25] was 14.7 µM, the TGI [25] was greater than 100 µM and the GI50 [26] was 0.299 µM. The TGI [26] was 20.8 µM, the GI50 [27] was 0.452 µM and the TGI [27] was 3.9 µM. The GI50 [28] was 0.693 µM, the TGI [28] was greater than 100 µM and the GI50 [29] was 1.48 µM. It also gave a TGI [29] greater than 100 µM, a GI50 [30] of 0.473 µM and a TGI [30] of 34 µM. For the same compound, the GI50 [31] was 0.36 µM, the TGI [31] was 19.6 µM and the GI50 [32] was 0.683 µM. It also gave a TGI [32] greater than 100 µM, a GI50 [33] of 0.781 µM and a TGI [33] greater than 67.6 µM. The GI50 [34] was 0.703 µM, the TGI [34] was greater than 71.2 µM and the GI50 [35] was 1.61 µM. For the same compound, the TGI [35] was greater than 100 µM, the GI50 [36] was 5.18 µM and the TGI [36] was greater than 100 µM. The GI50 [37] was 0.485 µM, the TGI [37] was greater than 100 µM and the GI50 [38] was 0.546 µM. It also gave a TGI [38] of 39.4 µM, a GI50 [39] of 2.2 µM and a TGI [39] greater than 100 µM. For the same compound, the GI50 [40] was 16.8 µM, the TGI [40] was greater than 100 µM and the GI50 [41] was 1.13 µM. For the same compound, the TGI [41] was greater than 100 µM, the GI50 [42] was 0.436 µM and the TGI [42] was greater than 100 µM. The GI50 [43] was 1.8 µM, the TGI [43] was greater than 100 µM and the GI50 [44] was 1.08 µM. It also gave a TGI [44] greater than 100 µM, a GI50 [45] of 0.832 µM and a TGI [45] of 37.5 µM. It also gave a GI50 [46] of 0.172 µM, a TGI [46] of 0.415 µM and a GI50 [47] of 18.6 µM. The TGI [47] was greater than 100 µM, the GI50 [48] was 0.509 µM and the TGI [48] was greater than 100 µM. The GI50 [49] was 0.908 µM, the TGI [49] was greater than 100 µM and the GI50 [50] was 0.436 µM. The TGI [50] was greater than 100 µM, the GI50 [51] was 0.487 µM and the TGI [51] was greater than 100 µM. The GI50 [52] was 0.706 µM, the TGI [52] was 55 µM and the GI50 [53] was 3.24 µM. For the same compound, the TGI [53] was greater than 67.3 µM, the GI50 [54] was 0.481 µM and the TGI [54] was 12.3 µM. For the same compound, the GI50 [55] was 0.918 µM, the TGI [55] was greater than 63.2 µM and the GI50 [56] was 3.89 µM. The TGI [56] was greater than 100 µM.

Cc1ccc(NC(=O)c2nc(S(C)=O)oc2-c2ccc(F)cc2)cc1Nc1nccc(-c2cccnc2)n1 (centres undefined) showed a GI50 [1] of 1.86 µM, a TGI [1] of 3.46 µM and a GI50 [2] of 3.91 µM. For the same compound, the TGI [2] was 13 µM, the GI50 [3] was 2.31 µM and the TGI [3] was 5.43 µM. For the same compound, the GI50 [4] was 2.03 µM, the TGI [4] was 4.41 µM and the GI50 [5] was 2.09 µM. It also gave a TGI [5] of 4.06 µM, a GI50 [6] of 1.82 µM and a TGI [6] of 3.53 µM. The GI50 [7] was 7.19 µM, the TGI [7] was 20.2 µM and the GI50 [8] was 2.1 µM. The TGI [8] was 4.01 µM, the GI50 [9] was 3.84 µM and the TGI [9] was 25.8 µM. For the same compound, the GI50 [10] was 1.87 µM, the TGI [10] was 3.86 µM and the GI50 [11] was 1.88 µM. It also gave a TGI [11] of 3.57 µM, a GI50 [12] of 1.81 µM and a TGI [12] of 3.73 µM. The GI50 [13] was 2.43 µM, the TGI [13] was 6.5 µM and the GI50 [57] was 2.72 µM. The TGI [57] was 7.74 µM, the GI50 [14] was 1.89 µM and the TGI [14] was 3.85 µM. The GI50 [15] was 2.96 µM, the TGI [15] was 8.94 µM and the GI50 [16] was 1.84 µM. For the same compound, the TGI [16] was 3.59 µM, the GI50 [17] was 1.91 µM and the TGI [17] was 3.75 µM. It also gave a GI50 [18] of 1.58 µM, a TGI [18] of 6.83 µM and a GI50 [19] of 1.8 µM. The TGI [19] was 3.38 µM, the GI50 [20] was 2.15 µM and the TGI [20] was 3.91 µM. For the same compound, the GI50 [21] was 15.1 µM, the TGI [21] was 29.2 µM and the GI50 [22] was 1.94 µM. It also gave a TGI [22] of 4.38 µM, a GI50 [23] of 1.34 µM and a TGI [23] of 2.89 µM. For the same compound, the GI50 [24] was 1.05 µM, the TGI [24] was 3.04 µM and the GI50 [25] was 1.95 µM. It also gave a TGI [25] of 3.97 µM, a GI50 [26] of 3.06 µM and a TGI [26] of 10.9 µM. It also gave a GI50 [27] of 1.77 µM, a TGI [27] of 3.71 µM and a GI50 [28] of 2.17 µM. The TGI [28] was 6.82 µM, the GI50 [29] was 1.73 µM and the TGI [29] was 3.14 µM. For the same compound, the GI50 [30] was 1.98 µM, the TGI [30] was 3.57 µM and the GI50 [31] was 0.726 µM. The TGI [31] was 3.79 µM, the GI50 [32] was 3.07 µM and the TGI [32] was 11.9 µM. The GI50 [33] was 2.95 µM, the TGI [33] was 8.04 µM and the GI50 [34] was 2.25 µM. It also gave a TGI [34] of 4.85 µM, a GI50 [35] of 1.69 µM and a TGI [35] of 3.1 µM. For the same compound, the GI50 [36] was 3.16 µM, the TGI [36] was 9 µM and the GI50 [37] was 2.58 µM. For the same compound, the TGI [37] was 7.14 µM, the GI50 [38] was 5.15 µM and the TGI [38] was 17.3 µM. For the same compound, the GI50 [39] was 2.15 µM, the TGI [39] was 4.61 µM and the GI50 [40] was 2.82 µM. For the same compound, the TGI [40] was 6.25 µM, the GI50 [43] was 2.23 µM and the TGI [43] was 4.64 µM. For the same compound, the GI50 [44] was 1.83 µM, the TGI [44] was 4.49 µM and the GI50 [45] was 10.5 µM. It also gave a TGI [45] of 25.7 µM, a GI50 [58] of 2.62 µM and a TGI [58] of 6.65 µM. It also gave a GI50 [46] of 2.13 µM, a TGI [46] of 4.77 µM and a GI50 [47] of 4.46 µM. It also gave a TGI [47] of 30.1 µM, a GI50 [48] of 2.13 µM and a TGI [48] of 4.69 µM. The GI50 [49] was 1.22 µM, the TGI [49] was 2.65 µM and the GI50 [50] was 0.454 µM. For the same compound, the TGI [50] was 3.3 µM, the GI50 [51] was 1.99 µM and the TGI [51] was 4.34 µM. The GI50 [52] was 2 µM, the TGI [52] was 3.55 µM and the GI50 [53] was 1.78 µM. The TGI [53] was 4.03 µM, the GI50 [54] was 1.87 µM and the TGI [54] was 3.39 µM. For the same compound, the GI50 [55] was 1.73 µM, the TGI [55] was 3.68 µM and the GI50 [56] was 1.74 µM. The TGI [56] was 4.17 µM.
